Values after ≈ are worked out from the molar mass of the structure shown. Like-named read-outs stand apart in the source and are kept apart here.
Legend:
Assay type in all cases: cell-based
[1] = test system: Escherichia coli K-12 strain; assay: MIC for Escherichia coli K-12 strain; conditions: for MIC: Escherichia coli, K12STRAIN, read-out: MIC Escherichia coli K12
[2] = test system: Escherichia coli BE1121 strain; assay: MIC for Escherichia coli BE1121 strain; conditions: for MIC: Escherichia coli, BE1121STRAIN, read-out: MIC Escherichia coli BE1121
[3] = test system: Enterococcus faecalis 5038 strain; assay: MIC for Enterococcus faecalis 5038 strain; conditions: read-out: MIC Enterococcus faecalis 5038
[4] = test system: Staphylococcus aureus Smith strain; assay: MIC for Staphylococcus aureus Smith strain; conditions: read-out: MIC Straphyrococcus aureus Smith
[5] = test system: Staphylococcus aureus MRSA No. 17 (methicillin-resistant Staphylococcus aureus: MRSA); assay: MIC for Staphylococcus aureus MRSA No. 17; conditions: read-out: MIC Straphyrococcus aureus MRSA No. 17 (MRSA)
[6] = test system: Clostridium difficile JCM1296 strain; assay: microbe, parasite or virus in culture; conditions: for MIC: Clostridioides difficile, JCM1296, read-out: MIC Clostridium difficile JCM1296
[7] = test system: Enterococcus faecalis NCTC12201 strain (vancomycin-resistant Enterococcus: VRE); assay: MIC for Enterococcus faecalis NCTC12201 strain (VRE); conditions: read-out: MIC Enterococcus faecalis NCTC 12201 (VRE)
[8] = test system: Clostridium perfringens PB6K strain; assay: microbe, parasite or virus in culture; conditions: CD medium, 37° C. overnight, 10% CO2-containing anaerobic conditions; for MIC: Clostridium perfringens, PB6KSTRAIN, read-out: MIC Clostridium perfringens PB6K, PB6K strain
[9] = test system: Staphylococcus aureus 209P strain; assay: MIC for Staphylococcus aureus 209P strain; conditions: for MIC: Staphylococcus aureus, read-out: MIC Straphyrococcus aureus 209P
[10] = K-12 strain, regular bouillon medium, 37° C. overnight, turbidity
[11] = BE1121 strain, regular bouillon medium, 37° C. overnight, turbidity
[12] = 5038 strain, Heart Infusion Broth medium, 37° C. overnight, turbidity
[13] = Smith strain, regular bouillon medium, 37° C. overnight, turbidity
[14] = MRSA No. 17, regular bouillon medium, 37° C. overnight, turbidity
[15] = NCTC12201 strain (VRE), Heart Infusion Broth medium, 37° C. overnight, turbidity
[16] = 209P strain, regular bouillon medium, 37° C. overnight, turbidity

| SMILES | MIC [1, 10] [µg/mL] | MIC [2, 11] [µg/mL] | MIC [3, 12] [µg/mL] | MIC [4, 13] [µg/mL] | MIC [5, 14] [µg/mL] | MIC [6] [µg/mL] | MIC [7, 15] [µg/mL] | MIC [8] [µg/mL] | MIC [9, 16] [µg/mL] | MIC ([3]; 5038STRAIN) [µg/mL] | MIC [4] [µg/mL] | MIC ([5]; MRSA) [µg/mL] | MIC [7] [µg/mL] | other results |
| --- | --- | --- | --- | --- | --- | --- | --- | --- | --- | --- | --- | --- | --- | --- |
| CCCCCCCCCC(O)=C1C(=O)N(C(=O)Nc2ccccc2)c2ccc(Br)cc21 [A033, N-(phenylaminocarbonyl)-5-bromo-3-decanoyl-2-oxyindole] | 256 (≈ 527 µM) | 128 (≈ 264 µM) | 256 (≈ 527 µM) | 256 (≈ 527 µM) | 256 (≈ 527 µM) | 0.5 (≈ 1.03 µM) | 256 (≈ 527 µM) | 0.5 (≈ 1.03 µM) | 256 (≈ 527 µM) |  |  |  |  |  |
| O=C(Nc1ccccc1)N1C(=O)C(=C(O)CCCCCCCCCBr)c2ccccc21 [A025, N-(phenylaminocarbonyl)-3-(10-bromodecanoyl)-2-oxyindole] | 256 (≈ 527 µM) | 256 (≈ 527 µM) | 0.5 (≈ 1.03 µM) | 2 (≈ 4.12 µM) | 256 (≈ 527 µM) | 0.5 (≈ 1.03 µM) | 0.5 (≈ 1.03 µM) | 1 (≈ 2.06 µM) | 256 (≈ 527 µM) |  |  |  |  |  |
| CCCCCCCCCCOCC(O)=C1C(=O)N(C(C)=O)c2ccccc21 [A013, N-acetyl-3-decyloxyacetyl-2-oxyindole] | 256 (≈ 685 µM) | 256 (≈ 685 µM) | 64 (≈ 171 µM) | 256 (≈ 685 µM) | 256 (≈ 685 µM) | 0.25 (≈ 0.669 µM) | 32 (≈ 85.7 µM) | 0.5 (≈ 1.34 µM) | 256 (≈ 685 µM) |  |  |  |  |  |
| CCCCCCCCCCOCC(=O)c1c(O)c2ccccc2oc1=O [B015, 3-decyloxyacetyl-4-hydroxycoumarin] |  |  |  |  |  | 0.25 (≈ 0.694 µM) |  | 25 (≈ 69.4 µM) |  | 4 (≈ 11.1 µM) | 2 (≈ 5.55 µM) | 8 (≈ 22.2 µM) | 2 (≈ 5.55 µM) | MIC [1]: 256 µg/mL (≈ 710 µM); MIC [2]: 128 µg/mL (≈ 355 µM); MIC ([9]; 209P): 8 µg/mL (≈ 22.2 µM) |
| CCCCCCCCCC(O)=C1C(=O)N(C(=O)OC(C)(C)C)c2cc(Cl)ccc21 [A003, N-Boc-3-decanoyl-6-chloro-2-oxyindole] | 256 (≈ 607 µM) | 128 (≈ 303 µM) | 128 (≈ 303 µM) | 256 (≈ 607 µM) | 256 (≈ 607 µM) | 0.5 (≈ 1.18 µM) | 128 (≈ 303 µM) | 1 (≈ 2.37 µM) | 256 (≈ 607 µM) |  |  |  |  |  |
| CCCCCCCCCC(=O)c1c(O)c2cc(Cl)ccc2oc1=O [B003, 6-chloro-3-decanoyl-4-hydroxycoumarin] | 256 (≈ 730 µM) | 256 (≈ 730 µM) |  |  |  |  |  | 0.25 (≈ 0.713 µM) | 2 (≈ 5.7 µM) | 0.5 (≈ 1.43 µM) | 0.5 (≈ 1.43 µM) | 2 (≈ 5.7 µM) | 0.25 (≈ 0.713 µM) |  |
| CCCCCCCCNC(=O)c1c(O)c2ccccc2oc1=O [B020, 3-(octylaminocarbonyl)-4-hydroxycoumarin] | 64 (≈ 202 µM) | 32 (≈ 101 µM) | 1 (≈ 3.15 µM) | 8 (≈ 25.2 µM) | 16 (≈ 50.4 µM) | 1 (≈ 3.15 µM) | 1 (≈ 3.15 µM) | 8 (≈ 25.2 µM) | 8 (≈ 25.2 µM) |  |  |  |  |  |
| CCCCCCCCCC(O)=C1C(=O)Nc2ccccc21 [A001, 3-decanoyl-2-oxyindole] | 256 (≈ 891 µM) | 256 (≈ 891 µM) | 16 (≈ 55.7 µM) | 32 (≈ 111 µM) | 32 (≈ 111 µM) |  | 16 (≈ 55.7 µM) |  | 16 (≈ 55.7 µM) |  |  |  |  |  |
| CCCCCCCCCC(=O)c1c(O)c2cc(F)ccc2oc1=O [B004, 3-decanoyl-6-fluoro-4-hydroxycoumarin] | 256 (≈ 766 µM) | 2 (≈ 5.98 µM) |  |  |  |  |  | 0.25 (≈ 0.748 µM) | 1 (≈ 2.99 µM) | 0.5 (≈ 1.5 µM) | 0.25 (≈ 0.748 µM) | 1 (≈ 2.99 µM) | 0.25 (≈ 0.748 µM) |  |
| CCCCCCCCCCOCC(O)=C1C(=O)N(C(=O)OC(C)(C)C)c2cc(Cl)ccc21 [A056, N-Boc-6-chloro-3-decyloxyacetyl-2-oxyindole] |  |  |  |  |  |  |  |  |  |  |  |  |  | MIC Escherichia coli K12 [1, 10]: 256 µg/mL (≈ 549 µM); MIC Escherichia coli BE1121 [2, 11]: 256 µg/mL (≈ 549 µM); MIC Clostridium difficile JCM1296 [6]: 4 µg/mL (≈ 8.58 µM); MIC Clostridium perfringens PB6K ([8]; PB6K strain): 0.5 µg/mL (≈ 1.07 µM); MIC Straphyrococcus aureus 209P [9, 16]: 256 µg/mL (≈ 549 µM) |
| CCCCCCCCCC(=O)N1C(=O)C(=C(O)c2ccc(F)cc2)c2ccccc21 [A061, N-decanoyl-3-(4-fluorobenzoyl)-2-oxyindole] |  |  |  |  |  |  |  | 2 (≈ 4.88 µM) |  | 4 (≈ 9.77 µM) | 2 (≈ 4.88 µM) | 64 (≈ 156 µM) | 4 (≈ 9.77 µM) | MIC [1]: 128 µg/mL (≈ 313 µM); MIC [2]: 128 µg/mL (≈ 313 µM); MIC ([9]; 209P): 128 µg/mL (≈ 313 µM) |
